Experimental data published in patent publication US11047848B2, “Cellular discovery platform for neurodegenerative diseases” (Whitehead Institute for Biomedical Research, priority 2013, dated 2021).

Tested on: primary cortical cultures
Experiment: Optimization of the NO sensor FL2 in rat primary cortical cultures
Type: cell-based
Details: 500 μM DETA-NONOate for 30 min, DIV 14-21; FIG. 20
Experimental: FIG. 20. Optimization of the NO sensor, FL2, using an NO donor, DETA-NONOate. FL2 dye was loaded after exposing primary cortical cultures (DIV 14-21) to 500 μM DETA-NONOate for 30 min. […] Control cultures exposed to dye without an NO donor are shown in the upper panel. A single representative experiment is shown.
Embryos were harvested by cesarean section from anesthetized pregnant Sprague-Dawley rats at embryonic day 18. Cerebral cortices were isolated and dissociated with Accumax (Innovative Cell Technologies, Inc) digestion for 20 min at 37° C. and triutration with Pasteur pipette. Poly-ornithine and lamine-coated 96 well plates or 8 well-chambered coverglass (Lab-Tek; 70378-81) were seeded with 4×10^4 or 8×10^4 cells respectively in neurobasal medium (Life Technologies) supplemented with B27 (Life Technologies), 0.5 mM glutamine, 25 μM β-mercaptoethanol, penicillin (100 IU/ml) and streptomycin (100 μg/ml). One third of the medium was changed every 3 to 4 days. As a surrogate marker of cell viability, cellular ATP content was measured using the ViaLight Plus kit (Lonza).
The FL2 sensor used in this study was a non-acidified and non-esterified version of the FL2-related sensors that have been previously published^23,24,53,55. A working 1 mM solution of FL2 (batch SJL #1768) in DMSO (Sigma 276855) was stable for at least 3 months at −20° C. […]

Structure (SMILES): NCCN(CCN)/[N+]([O-])=N/O [DETA-NONOate]
- FL2 response (NO signal): robust FL2 response
